This is an account of results in DBAASP.

Some test systems named below: Staphylococcus aureus; Escherichia coli; Escherichia coli MG1655; Micrococcus luteus A270; Escherichia coli SBS 363; Candida albicans MDM8.
Assay in all cases: ≥ marks a high value that may be exact or a test limit, other limits are often not marked, values filed in µg/mL are converted to µM
The test system of assay [1] is Candida parapsilosis ATCC 22019.
Assay [2] concerns Candida albicans ATCC 24433.
Assay [3] has as its system Trichophyton rubrum ATCC 28189.
Assay [4] deals with Candida albicans ATCC 14053.
Assay [5] concerns Micrococcus luteus ATCC 49732.
Assay [6] has as its system Staphylococcus aureus ATCC 12600.
Assay [7] has as its system Escherichia coli ATCC 11775.
Assay [8] has as its system Pseudomonas aeruginosa ATCC 27853.
The subject of assay [9] is Candida albicans NCTC 1467.
The test system of assay [10] is Escherichia coli NCTC 10418.
Assay [11] concerns Enterococcus faecalis NCTC 12697.
Assay [12] deals with Staphylococcus aureus NCTC 10788.
The test system of assay [13] is Staphylococcus aureus NCTC 12493.
The subject of assay [14] is Klebsiella pneumoniae ATCC 43816.
For assay [15], the system named is Pseudomonas aeruginosa ATCC 47085.
Assay [16] relates to Staphylococcus aureus ATCC 25923.
In assay [17] the test system is Klebsiella pneumoniae ATCC 700603.
The test system of assay [18] is Pseudomonas aeruginosa ATCC 10145.
Assay [19] has as its system Candida albicans ATCC 10231.
The test system of assay [20] is Escherichia coli ATCC 25922.
In assay [21] the test system is Enterococcus faecalis ATCC 29212.
For assay [22], the system named is Staphylococcus epidermidis KCTC 1917.
For assay [23], the system named is Pseudomonas aeruginosa ATCC 15422.

Converted amounts (≈) assume the structure as drawn. “And” between values parts separate entries of the source, which are not always exact repeats. Equal values may be shown once. Some results are limits rather than exact numbers.

For `CC[C@H](C)[C@H](NC(=O)[C@H](CC(C)C)NC(=O)[C@H](C)NC(=O)[C@H](CO)NC(=O)[C@H](CCCN=C(N)N)NC(=O)[C@@H](N)CO)C(=O)N[C@H](C(=O)N[C@@H](Cc1cnc[nH]1)C(=O)N[C@@H](CCC(N)=O)C(=O)N[C@@H](CCCN=C(N)N)C(=O)N[C@@H](CC(C)C)C(=O)N[C@@H](Cc1ccccc1)C(N)=O)C(C)C` [SRSALIVHQRLF], the MIC in the assay on Staphylococcus aureus was over 280 µM; in assay [1] it was at least 280 µM; in assay [2], at least 280 µM; against Escherichia coli, over 280 µM; in assay [3], at least 280 µM.
`CC(C)[C@H](NC(=O)[C@H](C)NC(=O)[C@@H](NC(=O)CNC(=O)[C@@H]1CCCN1)[C@@H](C)O)C(=O)N[C@@H](Cc1ccccc1)C(=O)N[C@@H](CCCCN)C(=O)O` [PGTAVFK]: the MIC in assay [4] is at least 201 µM; in [5] it was 31 µM (≈ 22.3 µg/mL); in assay [6], 31 µM (≈ 22.3 µg/mL); in assay [7], 31 µM (≈ 22.3 µg/mL).
As to `CSCC[C@H](NC(=O)[C@H](CCC(=O)O)NC(=O)[C@H](CCCCN)NC(=O)[C@H](CC(C)C)NC(=O)[C@H](CCCCN)NC(=O)CNC(=O)[C@H](Cc1c[nH]c2ccccc12)NC(=O)[C@H](CC(C)C)NC(=O)[C@@H](N)CO)C(=O)N[C@@H](CC(C)C)C(=O)N[C@@H](C)C(=O)N[C@@H](C)C(=O)N[C@@H](C)C(=O)NCC(=O)N[C@@H](CCCCN)C(=O)N[C@@H](C)C(=O)N[C@H](C(=O)N[C@@H](C)C(=O)N[C@@H](CC(N)=O)C(=O)N[C@@H](C)C(=O)N[C@H](C(=O)N[C@@H](CC(N)=O)C(=O)NCC(=O)N[C@@H](CC(C)C)C(=O)N[C@@H](C)C(=O)N[C@@H](CC(N)=O)C(=O)N[C@@H](CCC(N)=O)C(N)=O)C(C)C)C(C)C` [SLWGKLKEMLAAAGKAVANAVNGLANQ], the MIC was 32 µM (≈ 87.2 µg/mL) in assay [8]; at least 64 µM in [9]; 8 µM (≈ 21.8 µg/mL) in assay [10]; at least 32 µM in assay [11]; 8 µM (≈ 21.8 µg/mL) in assay [12]; 16 µM (≈ 43.6 µg/mL) in [13]. Also, the MIC in [14] was at least 32 µM.
`CC[C@H](C)[C@H](NC(=O)[C@H](CCCN=C(N)N)NC(=O)[C@H](CCC(N)=O)NC(=O)[C@@H](NC(=O)[C@@H](NC(=O)[C@@H](N)CCCN=C(N)N)[C@@H](C)CC)C(C)C)C(=O)N[C@@H](C)C(=O)N[C@@H](CCCCN)C(=O)N[C@@H](Cc1c[nH]c2ccccc12)C(=O)N[C@@H](C)C(=O)N[C@@H](CCCCN)C(=O)N[C@@H](CCCCN)C(=O)N[C@@H](Cc1c[nH]c2ccccc12)C(=O)N[C@@H](Cc1ccc(O)cc1)C(=O)N[C@@H](CCCCN)C(=O)N[C@@H](C)C(=O)NCC(=O)N[C@@H](CCCCN)C(N)=O` [RIVQRIAKWAKKWYKAGK]: the MIC in [15] is at least 55 µM; in assay [16] it was 13.7 µM (≈ 30.5 µg/mL).
In the case of `CC[C@H](C)[C@@H]1NC(=O)[C@H](CC(C)C)NC(=O)[C@@H](NC(=O)[C@@H](NC(=O)[C@@H](NC(=O)[C@H](C)NC(=O)CNC(=O)[C@H](CC(C)C)NC(=O)[C@H](C)NC(=O)[C@@H](N)Cc2ccccc2)C(C)C)[C@@H](C)O)CSSC[C@@H](C(=O)N[C@@H](CCCCN)C(=O)N[C@H](C(=O)N[C@@H](CC(C)C)C(=O)N2CCC[C@H]2C(=O)N[C@@H](CCCCN)C(=O)N[C@@H](CC(C)C)C(=O)N[C@@H](Cc2ccccc2)C(=O)O)C(C)C)NC(=O)[C@H](CCCCN)NC(=O)[C@H]([C@@H](C)O)NC(=O)[C@H](CCCN=C(N)N)NC1=O` [FALGAVTCLIRTKCKVLPKLF], the minimal inhibitory concentration (MIC) was over 128 µM in [8]; at least 128 µM in [9]; at least 64 µM in [10]; at least 128 µM in assay [12]; at least 128 µM in assay [13]; at least 128 µM in assay [14].
Take `CC[C@H](C)[C@H](NC(=O)[C@H](CCCN=C(N)N)NC(=O)[C@H](CCC(N)=O)NC(=O)[C@@H](NC(=O)[C@@H](NC(=O)[C@@H](N)CCCN=C(N)N)[C@@H](C)CC)C(C)C)C(=O)N[C@@H](CC(C)C)C(=O)N[C@@H](CCCCN)C(=O)N[C@@H](Cc1c[nH]c2ccccc12)C(=O)N[C@@H](CC(C)C)C(=O)N[C@@H](CCCCN)C(=O)N[C@@H](CCCCN)C(=O)N[C@@H](Cc1c[nH]c2ccccc12)C(=O)N[C@@H](Cc1ccc(O)cc1)C(=O)N[C@@H](CCCCN)C(=O)N[C@@H](CC(C)C)C(=O)NCC(=O)N[C@@H](CCCCN)C(N)=O` [RIVQRILKWLKKWYKLGK]: the minimum inhibitory concentration (MIC) was 27 µM (≈ 63.6 µg/mL) in [15] and 13.6 µM (≈ 32 µg/mL) in assay [16].
As to `CC(C)C[C@H](NC(=O)[C@H](Cc1c[nH]c2ccccc12)NC(=O)[C@H](Cc1cnc[nH]1)NC(=O)[C@H](CCCCN)NC(=O)[C@H](CC(C)C)NC(=O)[C@H](C)NC(=O)[C@H](CC(C)C)NC(=O)[C@H](CCCCN)NC(=O)CNC(=O)[C@@H](NC(=O)[C@@H](NC(=O)[C@@H](N)CCCCN)[C@@H](C)O)C(C)C)C(=O)O` [KTVGKLALKHWL], the minimum inhibitory concentration (MIC) in [17] was over 15 µM; in [16], over 15 µM; in [18], 15 µM (≈ 20.9 µg/mL); against Escherichia coli MG1655, 15 µM (≈ 20.9 µg/mL).
For the compound `CC(C)C[C@H](NC(=O)[C@H](CO)NC(=O)[C@@H](NC(=O)[C@@H](N)CCC(=O)O)C(C)C)C(=O)N[C@@H](CC(N)=O)C(=O)N[C@@H](CO)C(=O)NCC(=O)N[C@@H](Cc1ccc(O)cc1)C(=O)N[C@@H](Cc1ccc(O)cc1)C(=O)O` [EVSLNSGYY], the minimal inhibitory concentration (MIC) in assay [4] was at least 291 µM; in assay [5], at least 97 µM; in assay [6], at least 97 µM; in assay [7], at least 97 µM.
For `CC[C@H](C)[C@H](NC(=O)[C@H](CC(C)C)NC(=O)[C@H](CO)NC(=O)[C@@H](N)CCCN=C(N)N)C(=O)N[C@H](C(=O)N[C@@H](Cc1cnc[nH]1)C(=O)N[C@@H](CCC(N)=O)C(=O)N[C@@H](CCCN=C(N)N)C(=O)N[C@@H](CC(C)C)C(=O)N[C@@H](Cc1ccccc1)C(N)=O)C(C)C` [RSLIVHQRLF], the MIC with Staphylococcus aureus is over 315 µM; in assay [1] it was at least 315 µM; in [2], at least 315 µM; against Escherichia coli it was over 315 µM; in assay [3], at least 315 µM.
`CC[C@H](C)[C@H](NC(=O)[C@H](CC(C)C)NC(=O)[C@H](CCCCN)NC(=O)[C@H](CCCN=C(N)N)NC(=O)[C@H](Cc1ccccc1)NC(=O)[C@H](CC(C)C)NC(=O)[C@H](CO)NC(=O)[C@H](CC(C)C)NC(=O)[C@H](CC(C)C)NC(=O)[C@@H](N)CO)C(=O)N[C@H](C(N)=O)[C@@H](C)O` [SLLSLFRKLIT]: the figures for the minimum inhibitory concentration (MIC) with Micrococcus luteus A270, against Escherichia coli SBS 363 and in the assay on Candida albicans MDM8 were 1.56 µM (≈ 2.01 µg/mL), 12.5 µM (≈ 16.1 µg/mL) and 1.56 µM (≈ 2.01 µg/mL), respectively.
With `CC(C)C[C@H](NC(=O)CNC(=O)[C@H](Cc1ccc(O)cc1)NC(=O)[C@H](C)NC(=O)[C@@H]1CCCN1C(=O)[C@H](CC(C)C)NC(=O)[C@H](CCC(=O)O)NC(=O)[C@H](Cc1ccccc1)NC(=O)[C@H](Cc1cnc[nH]1)NC(=O)[C@H](CO)NC(=O)[C@@H](N)CCCCN)C(=O)O` [KSHFELPAYGL], the MIC in assay [19] was over 500 µM; in assay [20] it was over 500 µM; in [21], 422 µM and 405 µM and 252 µM; in [22], at least 267 µM; in assay [23] it was at least 500 µM.

By MIC is commonly meant the lowest concentration that inhibits growth of the organism. The low end stands for inhibition by little substance, the high end for a need for much substance.
